Results as given in paper PMC6687188, “Novel lactate dehydrogenase inhibitors with in vivo efficacy against Cryptosporidium parvum” (PLoS Pathogens, 2019).
Starred links: 1 amine or outer side, 2 acyl side, 3 side chain; linkers in the order of their positions; H or OH if unused. Positions of bridges follow the written chain, without caps; N, C: chain ends. Non-standard residues stand in square brackets, D forms with d. Residues, ends and D or L forms follow the SMILES beside them. Chains are numbered I, II in the order given. Actinocin(1to9) = Cc1c2oc3c(C)ccc(C(=O)[*:2])c3nc-2c(C(=O)[*:1])c(N)c1=O; NMeV = CN[C@H](C(=O)O)C(C)C; Sar = CNCC(=O)O

Biological target: recombinant CpLDH protein (Cryptosporidium parvum, UniProt Q9GT92, F198L/K295E/R251K)

SMILES	MEAN CpLDH INHIBITION (%)
S=C(Nc1ccccc1)N(/N=C/C=C/c1ccccc1)c1nnc(-c2ccccc2)c(-c2ccccc2)n1 [NSC640637]	-17.02
Cc1ccc([N+](=O)[O-])cc1NC(=O)c1cccc([N+](=O)[O-])c1O [NSC79451]	-40.98
O=C1OC(c2ccccc2)=N/C1=C\c1ccc(N(CCCl)CCCl)cc1 [NSC104117]	-18.47
CON(C)C(=O)C1CCCO1 (stereo not shown) [NSC695218]	-28.71
NC(=O)c1cn([C@@H]2O[C@H](CO)[C@@H](O)[C@H]2O)c2ncnc(N)c12 [NSC65346]	-11.87
Cl.O=C1c2cccc(NCCCNCCO)c2C(=O)c2cccc(NCCCNCCO)c21 [NSC363998]	-2.96
O=c1cccccc1O [NSC89303]	-7.26
CO[C@@H]1C[C@@H](C[C@H]2CC[C@H](C)[C@H]([C@@H](C)C(=O)[O-])O2)O[C@]2(O[C@](C)([C@H]3CC[C@@](C)([C@@H]4O[C@@H]([C@H]5O[C@@](O)(CO)[C@H](C)C[C@@H]5C)C[C@@H]4C)O3)C[C@H]2C)[C@@H]1C.[Na+] [NSC292567]	-134.14
CCOC(=O)NC(Nc1ccc(F)cc1)(C(=O)OCC)C(F)(F)F (stereo not shown) [NSC684845]	-7.56
C[C@H]1O[C@@H](c2ccc3c(c2O)C(=O)C2=C(C3=O)[C@@]3(O)C(=O)C[C@](C)(O)C[C@@]3(O)C=C2)C[C@@H](O)[C@@H]1O [NSC184398]	-31.06
Oc1ccc(/C=N/NC(=S)Nc2cccnc2)nc1 [NSC185065]	-8.17
CCOC(=O)Nc1nc2ccc(Cn3cccc3)cc2[nH]1 [NSC639754]	-8.79
CCCC(=O)[O-].[Na+] [NSC174280]	-5.75
NC(=S)N/N=C/c1ccc(OC(=O)COc2ccccc2Cl)cn1 [NSC185056]	-5.23
CCOc1cccc(/C=N/N=C2\C(=O)Nc3c(Cl)cc(Cl)cc32)c1O [NSC329277]	-1.09
C(=C/c1nc2ccccc2o1)/c1ccc2c(c1)OCO2 [NSC176655]	-23.23
O=[N+]([O-])c1cc(C(F)(F)F)cc([N+](=O)[O-])c1CCl [NSC622627]	-26.97
O=C([O-])c1cc(I)cc(I)c1[OH2+].O=C([O-])c1cc(I)cc(I)c1[OH2+].[Mn+2] [NSC619907]	-115.80
O=[N+]([O-])c1ccc(-c2cn(-c3ccc(Cl)cc3)cn2)cc1 [NSC610744]	-19.53
C/C=C(\CCC1NCCc2c1[nH]c1ccccc21)[Si](C)(C)C (stereo not shown) [NSC619165]	-14.52
CC(C)(C)[Si](C)(C)OCC1CCC(n2cnc3c(N)ncnc32)O1 (stereo not shown) [NSC616355]	-24.91
O=C1c2ccccc2C(=O)c2sc(Nc3ccc(Cl)c(Cl)c3)nc21 [NSC631521]	-0.12
C[C@@H](N)C(=O)NC(CO)C(O)C(N)C=O.Cl (stereo partly shown) [NSC278619]	-43.32
CC[C@H](C)[C@@H]1NC(=O)[C@@H](NC(=O)c2c3nc4c(C(=O)N[C@@H]5C(=O)N[C@@H](C(C)C)C(=O)N6CCC[C@H]6C(=O)N(C)CC(=O)N(C)[C@@H](C(C)C)C(=O)O[C@@H]5C)ccc(C)c4oc-3c(C)c(=O)c2N)[C@@H](C)OC(=O)[C@H](C(C)C)N(C)C(=O)CN(C)C(=O)[C@@H]2CCCN2C1=O [NSC18268] (I: TIP[Sar][NMeV] / II: TVP[Sar][NMeV]; ester I:1-I:C, II:1-II:C; linker I:N-II:N via Actinocin(1to9))	-2.01
C=C1C(=O)OCC2C(C(=O)O)=CC3C(C)C(C)=CC123 (stereo not shown) [NSC145150]	-64.31
O=C1C=CC(CC(=O)c2ccc3ccccc3c2)O1 (stereo not shown) [NSC634650]	-31.23

SMILES	MEAN CpLDH INHIBITION (%)
CCCCCc1cc(/C=C2/N=C(c3ccc[nH]3)C=C2OC)[nH]c1C [NSC47147]	-37.67
COC(=O)C1(C)CCCC2(C)C3CCC4CC3(C=C4CO)CCC12 (stereo not shown) [NSC360861]	-29.11
CCc1cccc(C(C)C)c1NC(=O)/C(=N\NC(N)=O)C(C(=O)OC)c1cnc2ccccc2n1 (stereo not shown) [NSC642033]	-12.26
N#Cc1cn([C@@H]2O[C@H](CO)[C@@H](O)[C@H]2O)c2ncnc(N)c12 [NSC63701]	-0.31
C1COCCN1.S=C(S)N1CCOCC1 [NSC4114]	-42.22
CCOC(=O)c1sc2[n+](c1C)C(=O)/C(=C/c1ccc([N+](=O)[O-])cc1)S2.[Cl-] [NSC658293]	-21.86
C1CCNCC1.S=C(S)N1CCCCC1 [NSC1906]	-58.60
CC(=O)[O][Hg][c]1c(C)c(C)c(C)c(C)c1C [NSC174176]	-60.94
Cc1ccccc1NC(=O)C(=O)C(C#N)c1ccccc1C (stereo not shown) [NSC636132]	-58.66
O=C1c2ccccc2C(=O)c2nc(-c3ccccc3)c(-c3ccccc3)nc21 [NSC629713]	-5.77
CC1=C2C(=CC(C)(C)[C@@H]2O)C(=O)[C@](C)(O)C12CC2 [NSC400978]	-79.24
Cc1c(C(=O)C/C(=N\O)C(=O)Nc2cc(Cl)c(Cl)cc2Cl)[n+](=O)c2ccccc2n1[O-] [NSC635544]	-233.40
O=C(c1ccccc1)C1OC12C(=O)Nc1c(Cl)cc(Cl)cc12 (stereo not shown) [NSC635306]	-37.53
N[C@@H](Cc1ccc2oc3cc(=O)c4ccccc4c-3nc2c1)C(=O)O [NSC672425]	-0.60
COC(=O)C(=O)C(C(=O)Nc1cccc(C)c1C)C1Sc2ccccc2NC1=O (stereo not shown) [NSC635833]	-26.59
C[C@]12C=CC(=O)C=C1[C@@H](F)C[C@H]1[C@@H]3CC[C@](O)(C(=O)CO)[C@@]3(C)C[C@H](O)[C@@]12F [NSC77021]	-2.42
CCN(CC)C(=S)[S-].[Na+] [NSC4857]	-37.64
CCNC(=O)OCc1c(COC(=O)NCC)c(-c2ccc(Cl)c(Cl)c2)n2c1CCC2 [NSC267700]	-49.53
CN1CC[C@]23c4ccccc4N[C@H]1[C@]21CCN(C)[C@H]3Nc2ccccc21 [NSC99016]	-25.29
CSCC(CO)NC(=O)/C=C/c1c(C)[nH]c(=O)[nH]c1=O (stereo not shown) [NSC233872]	-35.08
COC(=O)[C@@]12OC[C@]34[C@H]([C@@H](O)[C@@H]1O)[C@@]1(C)CC(=O)C(O)=C(C)[C@@H]1C[C@H]3OC(=O)[C@H](OC(=O)/C=C(\C)C(C)C)[C@@H]24 [NSC165563]	-22.46
CC(C)(C)N(Cc1ccc2c(c1)OCO2)C(=O)/C=C\[S+]([O-])c1ccccc1 (stereo not shown) [NSC705330]	-49.87
CCSC(=O)N1c2ccc(OC)cc2C=CC1C#N (stereo not shown) [NSC165897]	-41.74
COc1ccc2[nH]c3c(C)c4ccncc4c(C)c3c2c1 [NSC69187]	-16.81
CCOC(=O)Cc1cc(=O)oc2cc(O)ccc12 [NSC667235]	-25.51
CC1(O)C=CC(=O)C=C1 [NSC295156]	-1.00

SMILES	MEAN CpLDH INHIBITION (%)
COc1cccc(/C=N\NC(=O)C(C)SC(C)C(=O)N/N=C/c2cccc(OC)c2)c1 (stereo not shown) [NSC56737]	-38.88
CCN(CC)CCOc1ccc(C(O)(Cc2ccc(OC)cc2)c2ccccc2)cc1 (stereo not shown) [NSC19857]	-57.96
CC(=O)/C(=C\c1cccc([N+](=O)[O-])c1)C(=O)Nc1ccccc1C [NSC634658]	-26.76
CCC[CH2][Sn]1([CH2]CCC)[S]CC[N]1S(=O)(=O)c1ccc(C)cc1 [NSC183359]	-29.84
CN1CCCC2C(c3ccccc3)C(C3=NCCCC3)C(c3ccccc3)CC21.Cl (stereo not shown) [NSC109444]	-58.72
O=C1Nc2c(Cl)cc(Cl)cc2/C1=N/N=C/c1ccco1 [NSC329279]	-39.07
CC(=O)N=C1N(/C=C2\C(=O)Oc3ccccc3C2=O)C(=O)/C(=C/c2ccccc2Cl)N1C [NSC658494]	-56.68
COc1cccc2c1C(=O)c1c(O)c3c(c(O)c1C2=O)C[C@@](O)(C(C)=O)C[C@@H]3O[C@@H]1C[C@@H](N(C)C)[C@@H](O)[C@@H](C)O1 [NSC258812]	-2.78
O=C1CC[C@H](NC(=O)Cc2ccccc2)C(=O)N1 [NSC620261]	-132.95
Cc1ccc(NC(=O)c2cccc([N+](=O)[O-])c2O)c(C)c1 [NSC79456]	-17.92
O=C1CCC(c2ccccc2)=NN1c1nc2ccccc2s1 [NSC629659]	-32.05
CC[C@@]12CCCN3CC[C@]4(c5cccc(OC)c5N(C(C)=O)[C@@H]4CC1)[C@H]32 [NSC61811]	-26.07
O=C(O)c1ccc(Nc2c3ccccc3nc3ccccc23)cc1.[Na+] [NSC235082]	-28.09
COc1cc([C@@H]2c3cc4c(c(O)c3C[C@H]3COC(=O)[C@@H]32)OCO4)cc(OC)c1OC [NSC24819]	-66.99
CC(=O)OC[C@H]1O[C@@H](NC(=O)N(CCCl)N=O)[C@H](OC(C)=O)[C@@H](OC(C)=O)[C@@H]1OC(C)=O [NSC245432]	-45.30
COC(=O)c1ccccc1OCc1cc(=O)oc2ccc(C)cc12 [NSC623637]	-23.29
C=C(C)[C@@H]1CCc2c(O)c(O)c(=O)cc(C)c2C1 [NSC310618]	-54.97
CCCCCCCCCCCCC(O)C(=O)O (stereo not shown) [NSC18938]	-83.85
[Mo] [NSC622124]	0.01
Cc1nc(C(N)=S)sc1C(=O)CC(=O)C(=O)Nc1c(C(C)C)cccc1C(C)C [NSC642048]	-4.29
O=C(CC(=O)c1ccccc1)CC(O)(c1ccccc1)c1ccccc1 [NSC634232]	-33.26
O=C1c2ccccc2C(=O)C1C(c1ccc([N+](=O)[O-])cc1)C1C(=O)c2ccccc2C1=O [NSC643148]	-12.75
COc1cc2c3c(c1OC)-c1cc4c(cc1CC3(C#N)N(C(=O)c1ccccc1)CC2)OCO4 (stereo not shown) [NSC627666]	-0.33
O=[n+]1c2c(n([O-])c3ccccc31)-c1cccc3cccc-2c13 [NSC60309]	-23.17
